Test system: 883617-216-R-J1-PDC complex spheroid viability
Assay: Anticancer human tumor 883617-216-R-J1-PDC patient-derived bladder carcinoma cell line growth inhibition
Settings: for IC50: curve of first compound; for viability, T/C: stronger effect = lower value
Summary of the method: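 Multicellular complex spheroids of tumor cells with human endothelial cells (HUVEC) and mesenchymal stem cells; the LSD1 inhibitor iadademstat was combined with standard-of-care or investigational agents. Top concentration at or near clinical Cmax, half-log dilutions; final DMSO ≤0.25%.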

[1] = second compound 0.1 µM, first compound 0.0316 µM
[2] = second compound 0.1 µM, first compound 0.1 µM
[3] = second compound 0.1 µM, first compound 0.316 µM
[4] = second compound 0.1 µM, first compound 1 µM
[5] = second compound 0.1 µM, first compound 3.16 µM
[6] = second compound 0.1 µM, first compound 10 µM
[7] = second compound 0.316 µM, first compound 0.0316 µM
[8] = second compound 0.316 µM, first compound 0.1 µM
[9] = second compound 0.316 µM, first compound 0.316 µM
[10] = second compound 0.316 µM, first compound 1 µM
[11] = second compound 0.316 µM, first compound 3.16 µM
[12] = second compound 0.316 µM, first compound 10 µM
[13] = second compound 1 µM, first compound 0.0316 µM
[14] = second compound 1 µM, first compound 0.1 µM
[15] = second compound 1 µM, first compound 0.316 µM
[16] = second compound 1 µM, first compound 1 µM
[17] = second compound 1 µM, first compound 3.16 µM
[18] = second compound 1 µM, first compound 10 µM
[19] = second compound 3.16 µM, first compound 0.0316 µM
[20] = second compound 3.16 µM, first compound 0.1 µM
[21] = second compound 3.16 µM, first compound 0.316 µM
[22] = second compound 3.16 µM, first compound 1 µM
[23] = second compound 3.16 µM, first compound 3.16 µM
[24] = second compound 3.16 µM, first compound 10 µM
[25] = second compound 10 µM, first compound 0.0316 µM
[26] = second compound 10 µM, first compound 0.1 µM
[27] = second compound 10 µM, first compound 0.316 µM
[28] = second compound 10 µM, first compound 1 µM
[29] = second compound 10 µM, first compound 3.16 µM
[30] = second compound 10 µM, first compound 10 µM
[31] = second compound 0.1 µM, first compound 0.00316 µM
[32] = second compound 0.1 µM, first compound 0.01 µM
[33] = second compound 0.316 µM, first compound 0.00316 µM
[34] = second compound 0.316 µM, first compound 0.01 µM
[35] = second compound 1 µM, first compound 0.00316 µM
[36] = second compound 1 µM, first compound 0.01 µM
[37] = second compound 3.16 µM, first compound 0.00316 µM
[38] = second compound 3.16 µM, first compound 0.01 µM
[39] = second compound 10 µM, first compound 0.00316 µM
[40] = second compound 10 µM, first compound 0.01 µM
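Further: exposure lasted seven days after three days of spheroid growth.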
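Wherever viability, T/C is given: 100% = DMSO vehicle control luminescence.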

CC(C)c1c(-c2ccccc2)nc2c(C#N)c[nH]n2c1=O + NC1CC1c1ccc(-c2cccc(O)c2)cc1
IC50 (second compound 0.1 µM): > 10000 nM | IC50 (second compound 0.316 µM): > 10000 nM | IC50 (second compound 1 µM): > 10000 nM | IC50 (second compound 3.16 µM): > 10000 nM | IC50 (second compound 10 µM): > 10000 nM | viability, T/C [1]: 110% | viability, T/C [2]: 118% | viability, T/C [3]: 119% | viability, T/C [4]: 109% | viability, T/C [5]: 113% | viability, T/C [6]: 96% | viability, T/C [7]: 114% | viability, T/C [8]: 126% | viability, T/C [9]: 122% | viability, T/C [10]: 122% | viability, T/C [11]: 94.8% | viability, T/C [12]: 108% | viability, T/C [13]: 132% | viability, T/C [14]: 119% | viability, T/C [15]: 116% | viability, T/C [16]: 117% | viability, T/C [17]: 102% | viability, T/C [18]: 109% | viability, T/C [19]: 124% | viability, T/C [20]: 117% | viability, T/C [21]: 105% | viability, T/C [22]: 104% | viability, T/C [23]: 100% | viability, T/C [24]: 94.4% | viability, T/C [25]: 100% | viability, T/C [26]: 93.2% | viability, T/C [27]: 79.8% | viability, T/C [28]: 89.9% | viability, T/C [29]: 96.2% | viability, T/C [30]: 85.3%

CC1COCCN1c1cc(-c2ccnn2C)c2ccnc(-c3ccn[nH]3)c2n1 (stereo not given) + NC1CC1c1ccc(-c2cccc(O)c2)cc1
IC50 (second compound 0.1 µM): 7.65 nM | IC50 (second compound 0.316 µM): 8.14 nM | IC50 (second compound 1 µM): 8.58 nM | IC50 (second compound 3.16 µM): 4.73 nM | IC50 (second compound 10 µM): 3.73 nM | viability, T/C [31]: 56.5% | viability, T/C [32]: 49.9% | viability, T/C [1]: 37.2% | viability, T/C [2]: 29.1% | viability, T/C [3]: 24.6% | viability, T/C [4]: 18.8% | viability, T/C [33]: 63.4% | viability, T/C [34]: 45.9% | viability, T/C [7]: 35.3% | viability, T/C [8]: 32.7% | viability, T/C [9]: 26% | viability, T/C [10]: 21% | viability, T/C [35]: 60.1% | viability, T/C [36]: 49.8% | viability, T/C [13]: 32.8% | viability, T/C [14]: 29.1% | viability, T/C [15]: 23.1% | viability, T/C [16]: 20.4% | viability, T/C [37]: 56.6% | viability, T/C [38]: 37.8% | viability, T/C [19]: 30.3% | viability, T/C [20]: 26.6% | viability, T/C [21]: 23.2% | viability, T/C [22]: 19.4% | viability, T/C [39]: 51.2% | viability, T/C [40]: 41.9% | viability, T/C [25]: 27.6% | viability, T/C [26]: 25% | viability, T/C [27]: 22.6% | viability, T/C [28]: 19.7%

COc1ccc([C@@H](O)c2cc(-c3ncnc4cc(N5CCOCC5)ccc34)c(F)cc2Cl)nn1 + NC1CC1c1ccc(-c2cccc(O)c2)cc1
IC50 (second compound 0.1 µM): 877 nM | IC50 (second compound 0.316 µM): 1030 nM | IC50 (second compound 1 µM): 902 nM | IC50 (second compound 3.16 µM): 712 nM | IC50 (second compound 10 µM): 304 nM | viability, T/C [1]: 111% | viability, T/C [2]: 102% | viability, T/C [3]: 71.5% | viability, T/C [4]: 46.1% | viability, T/C [5]: 30.6% | viability, T/C [6]: 15.1% | viability, T/C [7]: 109% | viability, T/C [8]: 93.3% | viability, T/C [9]: 74.4% | viability, T/C [10]: 48.8% | viability, T/C [11]: 31.5% | viability, T/C [12]: 15.3% | viability, T/C [13]: 113% | viability, T/C [14]: 98.3% | viability, T/C [15]: 75% | viability, T/C [16]: 43.8% | viability, T/C [17]: 32.7% | viability, T/C [18]: 15.2% | viability, T/C [19]: 116% | viability, T/C [20]: 93.8% | viability, T/C [21]: 58.2% | viability, T/C [22]: 47.2% | viability, T/C [23]: 27% | viability, T/C [24]: 14.3% | viability, T/C [25]: 88% | viability, T/C [26]: 71.9% | viability, T/C [27]: 42.1% | viability, T/C [28]: 39% | viability, T/C [29]: 21.8% | viability, T/C [30]: 12.4%

COc1cc(C2c3cc4c(cc3C(OC3OC5COC(C)OC5C(O)C3O)C3COC(=O)C23)OCO4)cc(OC)c1O (stereo not given) + NC1CCC(NC2CC2c2ccccc2)CC1
IC50 (second compound 0.1 µM): 377 nM | IC50 (second compound 0.316 µM): 645 nM | IC50 (second compound 1 µM): 830 nM | IC50 (second compound 3.16 µM): 587 nM | IC50 (second compound 10 µM): 1750 nM | viability, T/C (second compound 0.1 µM, first compound 0.00949 µM): 96.9% | viability, T/C (second compound 0.1 µM, first compound 0.03 µM): 94.1% | viability, T/C (second compound 0.1 µM, first compound 0.0949 µM): 72.5% | viability, T/C (second compound 0.1 µM, first compound 0.3 µM): 51.6% | viability, T/C (second compound 0.1 µM, first compound 0.949 µM): 45.8% | viability, T/C (second compound 0.1 µM, first compound 3 µM): 38.3% | viability, T/C (second compound 0.316 µM, first compound 0.00949 µM): 101% | viability, T/C (second compound 0.316 µM, first compound 0.03 µM): 94% | viability, T/C (second compound 0.316 µM, first compound 0.0949 µM): 80.1% | viability, T/C (second compound 0.316 µM, first compound 0.3 µM): 51.4% | viability, T/C (second compound 0.316 µM, first compound 0.949 µM): 54% | viability, T/C (second compound 0.316 µM, first compound 3 µM): 43.4% | viability, T/C (second compound 1 µM, first compound 0.00949 µM): 104% | viability, T/C (second compound 1 µM, first compound 0.03 µM): 83% | viability, T/C (second compound 1 µM, first compound 0.0949 µM): 67.3% | viability, T/C (second compound 1 µM, first compound 0.3 µM): 56.2% | viability, T/C (second compound 1 µM, first compound 0.949 µM): 49.2% | viability, T/C (second compound 1 µM, first compound 3 µM): 44.6% | viability, T/C (second compound 3.16 µM, first compound 0.00949 µM): 106% | viability, T/C (second compound 3.16 µM, first compound 0.03 µM): 95.5% | viability, T/C (second compound 3.16 µM, first compound 0.0949 µM): 70.9% | viability, T/C (second compound 3.16 µM, first compound 0.3 µM): 53.2% | viability, T/C (second compound 3.16 µM, first compound 0.949 µM): 51.8% | viability, T/C (second compound 3.16 µM, first compound 3 µM): 41.8% | viability, T/C (second compound 10 µM, first compound 0.00949 µM): 122% | viability, T/C (second compound 10 µM, first compound 0.03 µM): 99.8% | viability, T/C (second compound 10 µM, first compound 0.0949 µM): 75.4% | viability, T/C (second compound 10 µM, first compound 0.3 µM): 60.2% | viability, T/C (second compound 10 µM, first compound 0.949 µM): 56.4% | viability, T/C (second compound 10 µM, first compound 3 µM): 45.6%

Nc1ncn(C2CC(O)C(CO)O2)c(=O)n1 (stereo not given) + NC1CCC(NC2CC2c2ccccc2)CC1
IC50 (second compound 0.1 µM): > 1000 nM | IC50 (second compound 0.316 µM): > 1000 nM | IC50 (second compound 1 µM): > 1000 nM | IC50 (second compound 3.16 µM): > 1000 nM | IC50 (second compound 10 µM): > 1000 nM | viability, T/C [31]: 109% | viability, T/C [32]: 99.4% | viability, T/C [1]: 94.7% | viability, T/C [2]: 78.1% | viability, T/C [3]: 72.6% | viability, T/C [4]: 62.4% | viability, T/C [33]: 103% | viability, T/C [34]: 115% | viability, T/C [7]: 102% | viability, T/C [8]: 89.8% | viability, T/C [9]: 79.4% | viability, T/C [10]: 67.1% | viability, T/C [35]: 103% | viability, T/C [36]: 98.8% | viability, T/C [13]: 96.7% | viability, T/C [14]: 89.6% | viability, T/C [15]: 77.7% | viability, T/C [16]: 69.6% | viability, T/C [37]: 108% | viability, T/C [38]: 100% | viability, T/C [19]: 92.4% | viability, T/C [20]: 84.8% | viability, T/C [21]: 78.6% | viability, T/C [22]: 66.9% | viability, T/C [39]: 101% | viability, T/C [40]: 106% | viability, T/C [25]: 108% | viability, T/C [26]: 92.3% | viability, T/C [27]: 93.8% | viability, T/C [28]: 77.6%
